The text below walks through data of article PMC3726061 (Journal of pharmaceutical and biomedical analysis, 2012).

Assay [1] concerns the target T1, σ1 receptors (Rattus norvegicus, UniProt Q9R0C9). The assay is described as follows: σ1 competition binding, [3H].
In assay [2] the target is T2, σ2 receptors (Rattus norvegicus, UniProt Q5U3Y7).
T2 sequence (Q5U3Y7 1-176): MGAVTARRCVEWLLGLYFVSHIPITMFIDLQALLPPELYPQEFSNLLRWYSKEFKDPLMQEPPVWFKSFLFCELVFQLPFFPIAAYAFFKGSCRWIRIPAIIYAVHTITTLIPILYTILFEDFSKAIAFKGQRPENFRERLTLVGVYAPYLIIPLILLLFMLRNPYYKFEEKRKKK
The experiment in a line: σ2 competition binding, [3H]DTG with.

The target of assay [3] is T2, σ2 receptors. The assay is described as follows: σ2 competition binding, [3H]DTG with. The source holds these as a separate data set.
Assay [4] has as its target σ1. The settings on record: read-out: Ki at σ1 (nM) Literature, footnote not given, cited from earlier work.
The target of assay [5] is T1, σ1 receptors. The assay is described as follows: biochemical.
The target in assay [6] is σ1. The note with it: read-out: Ki at σ1 (nM) Literature, cited from earlier work.
Assay [7] deals with σ2. The note with it: read-out: Ki at σ2 (nM) Literature, cited from earlier work.
Assay [8] deals with T1, σ1 receptors. The note with it: read-out: Ki at σ1 (nM) Experimental Brain/Brandel; rat brain P2, 5 nM [3H](+)-pentazocine, cell harvester.
The target in assay [9] is σ1. The settings on record: cited from earlier work.
The subject of assay [10] is σ2. The settings on record: read-out: Ki at σ2 (nM) Literature (reported value is IC50); Guinea-pig brain; ref Chaki, 1994; cited from earlier work.
For assay [11], the target named is σ2. The note with it: read-out: Ki at σ2 (nM) Literature, footnote not given, cited from earlier work.
Setting [12] is: Rat brain P2 with 5 nM [3H](+)-pentazocine, ref Bowen, 1993.
[13] abbreviates: Rat brain P2, 3 nM [3H]DTG with 1 μM dextrallorphan, ref Bowen, 1993.
[14] abbreviates: read-out: Ki at σ2 (nM) Experimental Brain/Brandel, rat brain P2, 3 nM [3H]DTG with 300 nM (+)-pentazocine, cell harvester.

Structures can show the parent of a compound that is named as a salt. Where two headings read alike, the source gives them in different places. Where only a bound is given, the exact number is not on record here.

T1 sequence (Q9R0C9 whole entry): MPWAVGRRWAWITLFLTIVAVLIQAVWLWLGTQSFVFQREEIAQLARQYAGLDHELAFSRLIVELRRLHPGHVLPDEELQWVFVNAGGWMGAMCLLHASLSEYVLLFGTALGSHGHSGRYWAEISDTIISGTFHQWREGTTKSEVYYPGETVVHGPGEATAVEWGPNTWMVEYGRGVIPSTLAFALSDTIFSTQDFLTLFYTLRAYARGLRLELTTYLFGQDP

As to `COc1ccc2c(c1)[C@]13CCCC[C@@H]1[C@H](C2)N(C)CC3` [dextromethorphan, dextromethorphan hydrobromide], the Ki on σ1 receptors [1] is 214 ± 15 nM; at σ2 receptors [2], more than 10000 nM; at σ2 receptors [3], more than 10000 nM; at σ1 [4] (ref g), 652 ± 33 nM; on σ1 receptors [5], 403 ± 22 nM.
As for `CC(=O)[C@H]1CC[C@H]2[C@@H]3CCC4=CC(=O)CC[C@]4(C)[C@H]3CC[C@]12C` [progesterone], the Ki on σ1 receptors [1] was 99.7 ± 3.1 nM; on σ2 receptors [2], more than 10000 nM; on σ2 receptors [3], more than 10000 nM; on σ1 [4] (ref f), 338 ± 8 nM; on σ1 receptors [5] it was 234 ± 4.4 nM.
With `CC(C)=CCN1CC[C@]2(C)c3cc(O)ccc3C[C@H]1[C@H]2C` [(+)-pentazocine, (+)-Pentazocine], the Ki on σ2 receptors [2] was 1410 ± 207 nM; at σ2 receptors [3], 1070 ± 94 nM; at σ1 [6] (setting [12]), […]; at σ2 [7] (setting [13]), 1360 ± 134 nM.
Turning to `CC(C)=CCN1CCC2(C)c3cc(O)ccc3CC1C2C` (single isomer, unassigned; (-)) [(−)-pentazocine], the Ki was 108 ± 4.4 nM on σ2 receptors [2] (setting [14]), […] on σ1 [6] (setting [12]) and 108 ± 6 nM at σ2 [7] (setting [13]).
For the compound `c1ccc(CCN2CCCCC2)cc1` [AC927, N-phenethylpiperidine oxalate], the Ki at σ2 receptors [2] (setting [14]) is 384 ± 34 nM; on σ1 receptors [8] it was 61.2 ± 5.6 nM; on σ1 [6] (Rat brain P2 with 3 nM [3H](+)-pentazocine, ref Matsumoto, 2008), 30 ± 2 nM; at σ2 [7] (Rat brain P2, 3 nM [3H]DTG with 300 nM (+)-pentazocine, ref Matsumoto, 2008) it was 138 ± 18 nM.
Turning to `CN1CCN(CCc2ccc(Cl)c(Cl)c2)CC1` [BD1063, 1-[2-(3,4-dichlorophenyl)ethyl]-4-methylpiperazine dihydrochloride], the Ki at σ1 receptors [1] is 33.4 ± 4.1 nM; at σ1 [9] (read-out: Ki at σ1 (nM) Literature, Guinea-pig brain P2 with 3 nM [3H](+)-pentazocine, ref Matsumoto, 1995), 9.15 ± 1.28 nM; on σ1 receptors [5], 15 ± 2.1 nM.
Regarding `CCCN(CCC)CCc1ccc(OC)c(OCCc2ccccc2)c1` [NE100, 4-methoxy-3-(2-phenylethoxy)-N,N-dipropylbenzeneethanamine hydrochloride], the Ki at σ1 receptors [1] worked out at 2 ± 0.5 nM; at σ2 receptors [2], 95.5 ± 1 nM; at σ2 receptors [3] it was 36.2 ± 1.1 nM; at σ1 receptors [5] it was 2.8 ± 0.5 nM. The IC50 was 1.54 ± 0.26 nM with σ1 [9] (read-out: Ki at σ1 (nM) Literature (reported value is IC50), Guinea-pig brain, ref Chaki, 1994) and 84.6 ± 32.9 nM in the assay with σ2 [10].
Consider `C=CCN1CCC2(C)c3cc(O)ccc3CC1C2C` (single isomer, unassigned; (+)) [(+)-SKF10, 047, (+)-N-allylnormetazocine hydrochloride], for which the Ki at σ1 receptors [8] is 287 ± 36 nM; on σ1 [6] (setting [12]), 28.7 ± 2.8 nM; at σ2 [7] (setting [13]), 33700 nM.
With `C[C@@H]1CN(CCCn2c3ccccc3c3ccccc32)C[C@H](C)N1` [rimcazole, rimcazole dihydrochloride monohydrate], the Ki on σ2 receptors [2] is 1570 ± 154 nM; on σ2 receptors [3] it was 719 ± 72 nM; on σ1 [4] (ref g) it was 867 ± 185 nM.
In the case of `COCCCC/C(=N\OCCN)c1ccc(C(F)(F)F)cc1` [fluvoxamine, fluvoxamine maleate], the Ki on σ1 [4] (ref e) is 36 nM; on σ2 [11] (ref e), 8440 nM.
As to `CCCc1ccc2c(c1)sc(=O)n2CCN1CCCCCC1` [SN56, 3-(2-(azepan-l-yl)ethyl)-6-propylbenzo[d]thiazol-2(3H)-one], the Ki on σ1 receptors [1] (read-out: Ki (nM) σ1, Table 2, 96-well filtration method, rat liver P2, 5 nM [3H](+)-pentazocine) was 1.6 ± 0.1 nM; at σ2 receptors [2] (setting [14]), 627 ± 115 nM; on σ1 receptors [8], 1.7 ± 0.1 nM; on σ1 [4] (ref h), 0.56 nM; on σ2 [11] (ref h), more than 1000 nM. Moreover, the “Ki σ2/Ki σ1” value at σ1 receptors [1] (selectivity ratio for σ1 versus σ2, 96-well method) is 168.

By IC50 is commonly meant the concentration at which inhibition is half-maximal.
